Measured values: PMC7187627 (Antimicrobial Agents and Chemotherapy, 2019)

Experiment: Safety and tolerability (adverse events, laboratory tests, ECG), multiple-ascending-dose phase 1 study
Assay type: in vivo
Conditions: all TEAEs
Text: Subjects were monitored closely with serial physical examinations, blood evaluations, and 12-lead ECGs. Subjects underwent safety laboratory testing, including measurement of blood cell counts (white blood cell [WBC] with differential, hemoglobin, and platelets), serum chemistry (sodium, potassium, chloride, calcium, bicarbonate, glucose, creatinine, blood urea nitrogen [BUN], creatine kinase [CK], aspartate aminotransferase [AST], alanine aminotransferase [ALT], alkaline phosphatase [ALP], total bilirubin, protein, albumin, amylase, and lipase) and urinalysis (protein, blood, and glucose). Study halting criteria had been established and were reviewed by an independent safety monitor (ISM) and the Safety Monitoring Committee (SMC) prior to proceeding with dosing within a cohort or to the next cohort.
The safety population included all subjects who received at least one dose of the study drug. The safety and tolerability of CRS3123 were evaluated by the sequential review of reported adverse events (AEs), changes from baseline in physical examination findings, vital sign measurements, safety laboratory tests (hematology, clinical chemistry, and urinalysis), and key 12-lead ECG findings. All safety assessments were summarized with descriptive statistics or frequency counts.
The period of observation for AE reporting began on day 1 at the time of study drug administration and continued through the final visit.
All AEs were coded to system organ class (SOC) and preferred term (PT) using the Medical Dictionary for Regulatory Activities (MedDRA), version 17.0 (https://www.meddra.org/). A treatment-emergent AE (TEAE) was defined as any AE that occurred during the study observation period (i.e., from day 1 at the time of study drug administration through the final visit). An AE with a partial onset date was classified as a TEAE if the reported partial onset date could not definitely be identified as before the date of study drug administration. Any AE with a missing onset date or missing time on day of study drug administration was classified as a TEAE.
To count the overall number of subjects who experienced each TEAE and calculation of an occurrence rate, a subject experiencing multiple occurrences of an AE was counted only once for that PT. Similarly, if a subject experienced multiple TEAEs within the same SOC, that subject was counted once to calculate an occurrence rate for the SOC. To count the number of subjects who experienced each TEAE by severity classification (mild, moderate, severe, and life-threatening) and calculate an occurrence rate, a subject experiencing multiple occurrences of an AE of the same severity was counted once in that particular severity classification for that PT. If a subject experienced multiple occurrences of an AE of differing severities, only the most severe occurrence within each PT was counted.

O=c1cc(NCCCN[C@@H]2CCOc3c(Br)cc(Br)cc32)[nH]c2ccsc12 [CRS3123]
No. (%) of subjects: Aspartate aminotransferase increased (Cohort A, 200 mg Q12h (n = 8)): 0 (0.0) | No. (%) of subjects: Blood bilirubin increased (Cohort A, 200 mg Q12h (n = 8)): 0 (0.0) | No. (%) of subjects: Blood calcium increased (Cohort A, 200 mg Q12h (n = 8)): 0 (0.0) | No. (%) of subjects: Blood potassium increased (Cohort A, 200 mg Q12h (n = 8)): 0 (0.0) | No. (%) of subjects: Blood pressure, diastolic, decreased (Cohort A, 200 mg Q12h (n = 8)): 0 (0.0) | No. (%) of subjects: Blood pressure, diastolic, increased (Cohort A, 200 mg Q12h (n = 8)): 0 (0.0) | No. (%) of subjects: Blood pressure, systolic, decreased (Cohort A, 200 mg Q12h (n = 8)): 0 (0.0) | No. (%) of subjects: Blood pressure, systolic, increased (Cohort A, 200 mg Q12h (n = 8)): 0 (0.0) | No. (%) of subjects: Diarrhea (Cohort A, 200 mg Q12h (n = 8)): 0 (0.0) | No. (%) of subjects: Dry skin (Cohort A, 200 mg Q12h (n = 8)): 0 (0.0) | No. (%) of subjects: Dysgeusia (Cohort A, 200 mg Q12h (n = 8)): 0 (0.0) | No. (%) of subjects: Ear and labyrinth disorders (system organ class) (Cohort A, 200 mg Q12h (n = 8)): 1 (12.5) | No. (%) of subjects: Ear discomfort (Cohort A, 200 mg Q12h (n = 8)): 1 (12.5) | No. (%) of subjects: Erythema (Cohort A, 200 mg Q12h (n = 8)): 0 (0.0) | No. (%) of subjects: Gastrointestinal disorders (system organ class) (Cohort A, 200 mg Q12h (n = 8)): 0 (0.0) | No. (%) of subjects: General disorders and administration site conditions (system organ class) (Cohort A, 200 mg Q12h (n = 8)): 0 (0.0) | No. (%) of subjects: Headache (Cohort A, 200 mg Q12h (n = 8)): 1 (12.5) | No. (%) of subjects: Hemoglobin decreased (Cohort A, 200 mg Q12h (n = 8)): 2 (25.0) | No. (%) of subjects: Infections and infestations (system organ class) (Cohort A, 200 mg Q12h (n = 8)): 1 (12.5) | No. (%) of subjects: Infusion site thrombosis (Cohort A, 200 mg Q12h (n = 8)): 0 (0.0) | No. (%) of subjects: Injury, poisoning, and procedural complications (system organ class) (Cohort A, 200 mg Q12h (n = 8)): 1 (12.5) | No. (%) of subjects: Investigations (system organ class) (Cohort A, 200 mg Q12h (n = 8)): 5 (62.5) | No. (%) of subjects: Lipase increased (Cohort A, 200 mg Q12h (n = 8)): 1 (12.5) | No. (%) of subjects: Musculoskeletal and connective tissue disorders (system organ class) (Cohort A, 200 mg Q12h (n = 8)): 0 (0.0) | No. (%) of subjects: Myalgia (Cohort A, 200 mg Q12h (n = 8)): 0 (0.0) | No. (%) of subjects: Nervous system disorders (system organ class) (Cohort A, 200 mg Q12h (n = 8)): 1 (12.5) | No. (%) of subjects: Oropharyngeal pain (Cohort A, 200 mg Q12h (n = 8)): 0 (0.0) | No. (%) of subjects: Psychiatric disorders (system organ class) (Cohort A, 200 mg Q12h (n = 8)): 1 (12.5) | No. (%) of subjects: Respiratory, thoracic, and mediastinal disorders (system organ class) (Cohort A, 200 mg Q12h (n = 8)): 0 (0.0) | No. (%) of subjects: Skin and subcutaneous tissue disorders (system organ class) (Cohort A, 200 mg Q12h (n = 8)): 0 (0.0) | No. (%) of subjects: Subjects with TEAEs (Cohort A, 200 mg Q12h (n = 8)): 8 (100.0) | No. (%) of subjects: Throat irritation (Cohort A, 200 mg Q12h (n = 8)): 0 (0.0) | No. (%) of subjects: Upper respiratory tract infection (Cohort A, 200 mg Q12h (n = 8)): 1 (12.5) | No. (%) of subjects: White blood cell count increased (Cohort A, 200 mg Q12h (n = 8)): 0 (0.0) | No. (%) of subjects: Alanine aminotransferase increased (Cohort B, 400 mg Q12h (n = 8)): 0 (0.0) | No. (%) of subjects: Amylase increased (Cohort B, 400 mg Q12h (n = 8)): 1 (12.5) | No. (%) of subjects: Anxiety (Cohort B, 400 mg Q12h (n = 8)): 0 (0.0) | No. (%) of subjects: Arthropod bite (Cohort B, 400 mg Q12h (n = 8)): 0 (0.0) | No. (%) of subjects: Aspartate aminotransferase increased (Cohort B, 400 mg Q12h (n = 8)): 0 (0.0) | No. (%) of subjects: Blood bilirubin increased (Cohort B, 400 mg Q12h (n = 8)): 0 (0.0) | No. (%) of subjects: Blood calcium increased (Cohort B, 400 mg Q12h (n = 8)): 1 (12.5) | No. (%) of subjects: Blood potassium increased (Cohort B, 400 mg Q12h (n = 8)): 1 (12.5) | No. (%) of subjects: Blood pressure, diastolic, decreased (Cohort B, 400 mg Q12h (n = 8)): 0 (0.0) | No. (%) of subjects: Blood pressure, diastolic, increased (Cohort B, 400 mg Q12h (n = 8)): 0 (0.0) | No. (%) of subjects: Blood pressure, systolic, decreased (Cohort B, 400 mg Q12h (n = 8)): 0 (0.0) | No. (%) of subjects: Blood pressure, systolic, increased (Cohort B, 400 mg Q12h (n = 8)): 0 (0.0) | No. (%) of subjects: Diarrhea (Cohort B, 400 mg Q12h (n = 8)): 2 (25.0)
